ChEMBL document CHEMBL1909046, “DrugMatrix in vitro pharmacology data”

What was measured:
Substance-P receptor = Substance-P receptor (Homo sapiens, UniProt P25103); assay type: cell membranes, CHO, Membrane; conditions: cho; also: in other assays of this panel Not Active means under 50% inhibition at 10 µM
Melanocortin receptor 5 = Melanocortin receptor 5 (Homo sapiens, UniProt P33032); assay type: cell membranes, HEK293, Membrane; conditions: hek293; also: in other assays of this panel Not Active means under 50% inhibition at 10 µM
[1] = target: Epidermal growth factor receptor (Homo sapiens, UniProt P00533); assay: DRUGMATRIX: Protein Tyrosine Kinase, EGF Receptor enzyme inhibition (substrate: Poly(Glu:Tyr)); assay type: cell-based, Insect cells; conditions: insect cells; Not Active = under 50% inhibition at 10 µM
[2] = target: T1, Vasoactive intestinal polypeptide receptor 1 (Homo sapiens, UniProt P32241); assay type: cell membranes, Membrane; conditions: ht-29; also: in other assays of this panel Not Active means under 50% inhibition at 10 µM
T1 sequence (P32241 whole entry): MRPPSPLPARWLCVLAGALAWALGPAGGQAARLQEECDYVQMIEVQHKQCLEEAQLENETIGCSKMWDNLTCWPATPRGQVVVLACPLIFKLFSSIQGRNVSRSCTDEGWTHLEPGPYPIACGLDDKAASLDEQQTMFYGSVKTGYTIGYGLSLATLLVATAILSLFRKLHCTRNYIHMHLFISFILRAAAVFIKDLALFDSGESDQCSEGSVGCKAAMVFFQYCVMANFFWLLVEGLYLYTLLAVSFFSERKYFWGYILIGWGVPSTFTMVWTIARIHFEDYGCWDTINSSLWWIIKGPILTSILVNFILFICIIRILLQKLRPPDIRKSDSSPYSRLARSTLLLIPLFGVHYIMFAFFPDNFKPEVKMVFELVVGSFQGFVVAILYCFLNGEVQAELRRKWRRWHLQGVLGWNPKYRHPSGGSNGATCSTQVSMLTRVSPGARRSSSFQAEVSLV

[3] = target: T2, Neuropeptide Y receptor type 2 (Homo sapiens, UniProt P49146); assay type: cell membranes, Membrane; conditions: kan-ts; also: in other assays of this panel Not Active means under 50% inhibition at 10 µM
T2 sequence (P49146 whole entry): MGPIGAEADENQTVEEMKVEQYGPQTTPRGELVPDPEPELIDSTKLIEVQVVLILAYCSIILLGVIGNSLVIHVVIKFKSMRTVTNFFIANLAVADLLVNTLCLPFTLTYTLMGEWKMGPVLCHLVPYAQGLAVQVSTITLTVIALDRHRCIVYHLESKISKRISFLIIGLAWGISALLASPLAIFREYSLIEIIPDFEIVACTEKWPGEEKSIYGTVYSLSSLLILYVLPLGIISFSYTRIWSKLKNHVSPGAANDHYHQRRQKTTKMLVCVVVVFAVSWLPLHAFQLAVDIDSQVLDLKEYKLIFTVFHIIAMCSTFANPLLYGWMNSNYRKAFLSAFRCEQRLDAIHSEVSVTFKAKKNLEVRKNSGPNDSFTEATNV

[4] = target: T3, Cholecystokinin receptor type A (Homo sapiens, UniProt P32238); assay type: cell membranes, Membrane; conditions: 1321-n1; also: in other assays of this panel Not Active means under 50% inhibition at 10 µM
T3 sequence (P32238 whole entry): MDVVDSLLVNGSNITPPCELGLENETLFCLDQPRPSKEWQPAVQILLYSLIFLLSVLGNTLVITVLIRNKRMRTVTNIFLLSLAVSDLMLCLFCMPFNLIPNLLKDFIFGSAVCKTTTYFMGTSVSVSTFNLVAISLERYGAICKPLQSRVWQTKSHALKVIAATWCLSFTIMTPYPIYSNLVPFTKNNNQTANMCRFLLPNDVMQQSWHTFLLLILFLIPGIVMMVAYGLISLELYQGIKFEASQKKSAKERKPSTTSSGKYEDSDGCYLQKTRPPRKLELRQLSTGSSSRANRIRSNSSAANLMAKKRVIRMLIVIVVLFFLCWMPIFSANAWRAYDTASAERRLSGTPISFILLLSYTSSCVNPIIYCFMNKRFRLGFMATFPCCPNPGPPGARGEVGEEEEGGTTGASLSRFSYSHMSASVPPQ

Measured: IC50

Chain of Epidermal growth factor receptor (P00533 whole entry): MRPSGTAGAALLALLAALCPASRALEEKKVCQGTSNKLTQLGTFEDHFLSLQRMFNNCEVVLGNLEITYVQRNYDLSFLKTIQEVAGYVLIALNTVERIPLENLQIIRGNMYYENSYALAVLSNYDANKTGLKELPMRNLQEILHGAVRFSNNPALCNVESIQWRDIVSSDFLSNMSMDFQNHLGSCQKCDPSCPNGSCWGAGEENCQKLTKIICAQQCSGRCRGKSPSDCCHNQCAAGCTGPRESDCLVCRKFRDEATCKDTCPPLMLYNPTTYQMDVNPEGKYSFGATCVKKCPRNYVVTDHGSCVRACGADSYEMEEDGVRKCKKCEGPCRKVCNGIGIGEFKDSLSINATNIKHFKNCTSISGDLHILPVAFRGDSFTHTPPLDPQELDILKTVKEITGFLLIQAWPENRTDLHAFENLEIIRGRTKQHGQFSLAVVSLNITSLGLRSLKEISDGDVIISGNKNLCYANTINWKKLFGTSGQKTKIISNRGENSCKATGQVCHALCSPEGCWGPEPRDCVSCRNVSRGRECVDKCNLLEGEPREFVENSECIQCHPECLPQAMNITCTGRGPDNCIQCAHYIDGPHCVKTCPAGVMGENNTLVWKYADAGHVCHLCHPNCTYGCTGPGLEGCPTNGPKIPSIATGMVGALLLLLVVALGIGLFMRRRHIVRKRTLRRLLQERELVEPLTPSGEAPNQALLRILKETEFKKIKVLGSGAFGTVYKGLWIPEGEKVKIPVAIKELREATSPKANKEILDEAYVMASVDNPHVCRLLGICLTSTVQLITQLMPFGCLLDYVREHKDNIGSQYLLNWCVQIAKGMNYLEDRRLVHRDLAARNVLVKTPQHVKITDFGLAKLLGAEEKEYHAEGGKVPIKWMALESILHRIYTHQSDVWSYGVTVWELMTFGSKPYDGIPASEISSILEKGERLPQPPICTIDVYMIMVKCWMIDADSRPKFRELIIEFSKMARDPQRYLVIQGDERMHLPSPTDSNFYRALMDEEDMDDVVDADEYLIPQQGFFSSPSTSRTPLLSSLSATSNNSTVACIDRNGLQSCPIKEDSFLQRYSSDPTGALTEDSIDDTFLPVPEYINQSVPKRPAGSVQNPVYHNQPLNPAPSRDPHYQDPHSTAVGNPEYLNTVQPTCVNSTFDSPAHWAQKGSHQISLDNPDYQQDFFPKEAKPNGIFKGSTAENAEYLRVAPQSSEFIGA
Chain of Melanocortin receptor 5 (P33032 whole entry): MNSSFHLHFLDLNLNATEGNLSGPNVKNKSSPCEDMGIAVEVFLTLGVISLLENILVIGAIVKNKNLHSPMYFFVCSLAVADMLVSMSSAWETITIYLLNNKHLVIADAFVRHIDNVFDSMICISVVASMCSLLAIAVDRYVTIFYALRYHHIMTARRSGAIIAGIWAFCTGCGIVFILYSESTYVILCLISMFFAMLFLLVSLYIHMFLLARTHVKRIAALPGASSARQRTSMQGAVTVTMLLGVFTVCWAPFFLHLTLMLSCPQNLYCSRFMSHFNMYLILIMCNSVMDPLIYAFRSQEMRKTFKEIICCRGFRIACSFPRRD
Chain of Substance-P receptor (P25103 whole entry): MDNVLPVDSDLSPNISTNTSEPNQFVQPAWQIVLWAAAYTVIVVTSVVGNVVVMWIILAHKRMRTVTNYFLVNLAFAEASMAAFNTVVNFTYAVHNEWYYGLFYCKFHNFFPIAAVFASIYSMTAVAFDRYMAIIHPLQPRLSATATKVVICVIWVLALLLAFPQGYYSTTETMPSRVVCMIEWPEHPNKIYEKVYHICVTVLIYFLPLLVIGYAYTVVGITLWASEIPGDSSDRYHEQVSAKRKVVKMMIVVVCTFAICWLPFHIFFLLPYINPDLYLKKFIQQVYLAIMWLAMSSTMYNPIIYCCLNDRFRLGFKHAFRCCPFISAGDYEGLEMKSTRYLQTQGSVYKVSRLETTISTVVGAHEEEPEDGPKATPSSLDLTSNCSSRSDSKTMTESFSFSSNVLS

CC(C)(C)NC(=O)[C@@H]1C[C@@H]2CCCC[C@@H]2CN1C[C@@H](O)[C@H](Cc1ccccc1)NC(=O)[C@H](CC(N)=O)NC(=O)c1ccc2ccccc2n1
Not Active: all assays above

CC1(C)O[C@@H]2C[C@H]3[C@@H]4CCC5=CC(=O)C=C[C@]5(C)[C@@]4(F)[C@@H](O)C[C@]3(C)[C@]2(C(=O)CO)O1 [TRIAMCINOLONE ACETONIDE]
Not Active: all assays above

Cc1cccc(N(C)C(=S)Oc2ccc3ccccc3c2)c1 [TOLNAFTATE]
Not Active: all assays above

C[C@@H]1CN(c2c(F)c(N)c3c(=O)c(C(=O)O)cn(C4CC4)c3c2F)C[C@H](C)N1 [SPARFLOXACIN]
Not Active: all assays above

Cn1ccnc1S [METHIMAZOLE]
Not Active: all assays above

CN1CCN(CCCN2c3ccccc3Sc3ccc(Cl)cc32)CC1 [PROCHLORPERAZINE]
Not Active: all assays above

C=CCC1(C(C)CCC)C(=O)NC(=O)NC1=O (stereo unspecified) [SECOBARBITAL]
Not Active: all assays above

N[C@@H](Cc1ccc(N(CCCl)CCCl)cc1)C(=O)O
Not Active: all assays above

Nc1nc2ccc(OC(F)(F)F)cc2s1 [RILUZOLE]
Not Active: all assays above

N[C@@H]1[C@H]2CN(c3nc4c(cc3F)c(=O)c(C(=O)O)cn4-c3ccc(F)cc3F)C[C@@H]12 [TROVAFLOXACIN]
not listed: [1]
Not Active: all other assays above

COc1c(C)c2c(c(O)c1C/C=C(\C)CCC(=O)O)C(=O)OC2 [MYCOPHENOLIC ACID]
Not Active: all assays above

CCCOc1ccccc1-c1nc2nn[nH]c2c(=O)[nH]1 [ZAPRINAST]
Not Active: all assays above

N#CC(C#N)=Cc1ccc(O)c(O)c1 [TYRPHOSTIN 23]
not listed: [1]
Not Active: all other assays above
